Reference: patent US20160298129A1, “ALS INHIBITOR HERBICIDE TOLERANT MUTANT PLANTS” (BAYER CROPSCIENCE NV, priority 2013, published 2016)

Tests used:
AHAS P197S-D376E = AHAS P197S-D376E (Arabidopsis thaliana, UniProt P17597, D376E/E575Q/P197S); experiment: biochemical
Description: (§1) Bacteria are grown at 37° C. in LB-medium containing 100 mg/l carbenicillin and 25 mg/l canamycin, induced with 1 mM isopropyl-β-D-thiogalactopyranoside at an OD600 of 0.6, cultivated for 16 hours at 18° C. and harvested by, e.g., centrifugation. Bacterial pellets are resuspended in 100 mM sodium phosphate buffer pH 7.0 containing 0.1 mM thiamine-pyrophosphate, 1 mM MgCl2, and 1 μM FAD at a concentration of 1 gram wet weight per 25 ml of buffer and disrupted by, e.g., sonification. The crude protein extract obtained after centrifugation is used for ALS activity measurements.
(§2) ALS protein can be extracted from leaves or tissue cultures, such as B. napus or B. juncea leaves, or B. napus or B. juncea tissue cultures as described by Ray (Plant Physiol, 1984, 75:827-831). An ALS assays can be carried out in 96-well microtiter plates using a modification of the procedure described by Ray (1984): The reaction mixture contains 20 mM potassium phosphate buffer pH 7.0, 20 mM sodium pyruvate, 0.45 mM thiamine-pyrophosphate, 0.45 mM MgCl2, 9 μM FAD. ALS enzyme and various concentrations of ALS inhibitors can be mixed in a final volume of 90 μl Assays can be initiated by adding enzyme and the assays can be terminated after 75 min incubation at 30° C. by the addition of 40 μl 0.5 M H2SO4.

AHAS P197S-D376E-W574L = AHAS P197S-D376E-W574L (Arabidopsis thaliana, UniProt P17597, D376E/E575Q/P197S/W574L); experiment: biochemical
AHAS P197S-D376E-W574L, sequence (P17597 56-670 P197S/D376E/W574L/E575Q): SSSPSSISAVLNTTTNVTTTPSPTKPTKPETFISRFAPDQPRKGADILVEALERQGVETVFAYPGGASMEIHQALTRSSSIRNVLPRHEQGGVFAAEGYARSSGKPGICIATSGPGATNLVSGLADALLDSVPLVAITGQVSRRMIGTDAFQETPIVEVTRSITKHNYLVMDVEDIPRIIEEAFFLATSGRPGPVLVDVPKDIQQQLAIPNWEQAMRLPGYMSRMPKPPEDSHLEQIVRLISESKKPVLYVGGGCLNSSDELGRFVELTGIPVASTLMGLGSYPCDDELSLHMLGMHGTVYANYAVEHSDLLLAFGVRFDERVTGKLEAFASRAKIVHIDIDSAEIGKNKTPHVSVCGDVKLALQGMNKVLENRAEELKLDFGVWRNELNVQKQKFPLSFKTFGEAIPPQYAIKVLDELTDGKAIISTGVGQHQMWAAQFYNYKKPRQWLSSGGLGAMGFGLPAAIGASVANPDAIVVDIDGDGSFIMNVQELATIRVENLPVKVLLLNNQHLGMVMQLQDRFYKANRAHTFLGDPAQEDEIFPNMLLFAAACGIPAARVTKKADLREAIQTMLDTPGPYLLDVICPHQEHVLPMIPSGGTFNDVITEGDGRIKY
Description: as §1, §2

AHAS WT [1] = target: AHAS WT (Arabidopsis thaliana, UniProt P17597, E575Q); experiment: biochemical; conditions: AHAS WT
AHAS WT (Arabidopsis thaliana, UniProt P17597, E575Q), sequence (P17597 56-670 E575Q): as the sequence (P17597 56-670 P197S/D376E/W574L/E575Q) above, with S142P, E321D, L519W counted along it
Description: as §1, §2

AHAS P197S-W574L = AHAS P197S-W574L (Arabidopsis thaliana, UniProt P17597, E575Q/P197S/W574L); experiment: biochemical
AHAS P197S-W574L, sequence (P17597 56-670 P197S/W574L/E575Q): as the sequence (P17597 56-670 P197S/D376E/W574L/E575Q) above, with E321D counted along it
Description: as §1, §2

AHAS D376E = AHAS D376E (Arabidopsis thaliana, UniProt P17597, D376E/E575Q); experiment: biochemical
Description: as §1, §2

AHAS D376E-W574L = AHAS D376E-W574L (Arabidopsis thaliana, UniProt P17597, D376E/E575Q/W574L); experiment: biochemical
AHAS D376E-W574L, sequence (P17597 56-670 D376E/W574L/E575Q): as the sequence (P17597 56-670 P197S/D376E/W574L/E575Q) above, with S142P counted along it
Description: as §1, §2

AHAS P197S = AHAS P197S (Arabidopsis thaliana, UniProt P17597, E575Q/P197S); type: biochemical
Description: as §1, §2

AHAS W574L = AHAS W574L (Arabidopsis thaliana, UniProt P17597, E575Q/W574L); type: biochemical
Description: as §1, §2

AHAS WT [2] = target: AHAS WT (Arabidopsis thaliana, UniProt P17597); experiment: biochemical
AHAS WT (Arabidopsis thaliana, UniProt P17597), sequence (P17597 56-670 E575Q): as the sequence (P17597 56-670 P197S/D376E/W574L/E575Q) above, with S142P, E321D, L519W counted along it
Description: as §1, §2

AHAS enzymatic activity = experiment: Kinetic parameters of enzymatic activity of AHAS mutants; type: biochemical
Description: The ALS inhibitor sensitivity and kinetic parameters of AHAS proteins comprising the P197S mutation, the W574L mutation, the D376E mutation, and combinations thereof in one protein, were determined essentially as described in WO 2013/127766.

AHAS P197S-D376E, sequence (P17597 56-670 P197S/D376E/E575Q): as the sequence (P17597 56-670 P197S/D376E/W574L/E575Q) above, with L519W counted along it

Row | Molecule | Resistance Factor (AHAS P197S-D376E; AHAS P197S-D376E) | Resistance Factor (AHAS P197S-D376E-W574L; AHAS P197S-D376E-W574L) | Resistance Factor (AHAS P197S-W574L; AHAS P197S-W574L) | Resistance Factor (AHAS D376E; AHAS D376E) | Resistance Factor (AHAS D376E-W574L; AHAS D376E-W574L) | Resistance Factor (AHAS P197S) | Resistance Factor (AHAS W574L) | IC50 (AHAS P197S-D376E) | IC50 (AHAS P197S-D376E-W574L) | IC50 (AHAS WT [2]) | IC50 (AHAS P197S-W574L) | IC50 (AHAS D376E) | IC50 (AHAS D376E-W574L) | Km (AHAS enzymatic activity) | Vmax (AHAS enzymatic activity) | relative Vmax (AHAS enzymatic activity) | other results
1 | COc1ncc(F)c2nc(S(=O)(=O)Nc3c(F)cccc3F)nn12 [Florasulam, florasulam] | 2754 | >6918 | >6918 | 55 | >6918 | 28 | 1738 |  |  |  |  |  |  |  |  |  | pI50 (AHAS P197S-D376E; AHAS P197S-D376E): 4.4; pI50 (AHAS P197S-D376E-W574L; AHAS P197S-D376E-W574L): <4; pI50 (AHAS WT [1]): 7.8; pI50 (AHAS P197S-W574L; AHAS P197S-W574L): <4; pI50 (AHAS D376E; AHAS D376E): 6.1; pI50 (AHAS D376E-W574L; AHAS D376E-W574L): <4; pI50 (AHAS P197S): 6.4; pI50 (AHAS W574L): 4.6
2 | COc1cc(OC)nc(NC(=O)NS(=O)(=O)c2ncccc2C(=O)N(C)C)n1 [Nicosulfuron, nicosulfuron] | >607 | >607 | >607 | >607 | >607 | 6 | >607 | > 100 µM | > 100 µM | 0.158 µM | > 100 µM | > 100 µM | > 100 µM |  |  |  | 
3 | CCS(=O)(=O)c1cccnc1S(=O)(=O)NC(=O)Nc1nc(OC)cc(OC)n1 [Rimsulfuron, rimsulfuron] | >4466 | >4466 | >4466 | 56 | >4466 | 18 | 447 | > 100 µM | > 100 µM | 0.02 µM | > 100 µM | 1.26 µM | > 100 µM |  |  |  | 
4 | CCS(=O)(=O)c1nc2ccccn2c1S(=O)(=O)NC(=O)Nc1nc(OC)cc(OC)n1 [Sulfosulfuron, sulfosulfuron] | >4641 | >4641 | >4641 | 1166 | >4641 | 1848 | >4641 | > 100 µM | > 100 µM | 0.02 µM | > 100 µM | 25.1 µM | > 100 µM |  |  |  | 
5 | D376E: AHAS protein with glutamic acid instead of aspartic acid at position 376 of SEQ ID NO: 10 (protein, listed as Arabidopsis thaliana) MAAATTTTTTSSSISFSTKPSPSSSKSPLPISRFSLPFSLNPNKSSSSSRRRGIKSSSPSSISAVLNTTTNVTTTPSPTKPTKPETFISRFAPDQPRKGADILVEALERQGVETVFAYPGGASMEIHQALTRSSSIRNVLPRHEQGGVFAAEGYARSSGKPGICIATSGPGATNLVSGLADALLDSVPLVAITGQVPRRMIGTDAFQETPIVEVTRSITKHNYLVMDVEDIPRIIEEAFFLATSGRPGPVLVDVPKDIQQQLAIPNWEQAMRLPGYMSRMPKPPEDSHLEQIVRLISESKKPVLYVGGGCLNSSDELGRFVELTGIPVASTLMGLGSYPCDDELSLHMLGMHGTVYANYAVEHSDLLLAFGVRFDERVTGKLEAFASRAKIVHIDIDSAEIGKNKTPHVSVCGDVKLALQGMNKVLENRAEELKLDFGVWRNELNVQKQKFPLSFKTFGEAIPPQYAIKVLDELTDGKAIISTGVGQHQMWAAQFYNYKKPRQWLSSGGLGAMGFGLPAAIGASVANPDAIVVDIDGDGSFIMNVQELATIRVENLPVKVLLLNNQHLGMVMQWQDRFYKANRAHTFLGDPAQEDEIFPNMLLFAAACGIPAARVTKKADLREAIQTMLDTPGPYLLDVICPHQEHVLPMIPSGGTFNDVITEGDGRIKY |  |  |  |  |  |  |  |  |  |  |  |  |  | 1.4 mM | 103.0 deltaOD550/min mg protein | 2.7 | 
6 | P197S: AHAS protein with serine instead of proline at position 197 of SEQ ID NO: 10 (protein, listed as Arabidopsis thaliana) MAAATTTTTTSSSISFSTKPSPSSSKSPLPISRFSLPFSLNPNKSSSSSRRRGIKSSSPSSISAVLNTTTNVTTTPSPTKPTKPETFISRFAPDQPRKGADILVEALERQGVETVFAYPGGASMEIHQALTRSSSIRNVLPRHEQGGVFAAEGYARSSGKPGICIATSGPGATNLVSGLADALLDSVPLVAITGQVSRRMIGTDAFQETPIVEVTRSITKHNYLVMDVEDIPRIIEEAFFLATSGRPGPVLVDVPKDIQQQLAIPNWEQAMRLPGYMSRMPKPPEDSHLEQIVRLISESKKPVLYVGGGCLNSSDELGRFVELTGIPVASTLMGLGSYPCDDELSLHMLGMHGTVYANYAVEHSDLLLAFGVRFDDRVTGKLEAFASRAKIVHIDIDSAEIGKNKTPHVSVCGDVKLALQGMNKVLENRAEELKLDFGVWRNELNVQKQKFPLSFKTFGEAIPPQYAIKVLDELTDGKAIISTGVGQHQMWAAQFYNYKKPRQWLSSGGLGAMGFGLPAAIGASVANPDAIVVDIDGDGSFIMNVQELATIRVENLPVKVLLLNNQHLGMVMQWQDRFYKANRAHTFLGDPAQEDEIFPNMLLFAAACGIPAARVTKKADLREAIQTMLDTPGPYLLDVICPHQEHVLPMIPSGGTFNDVITEGDGRIKY |  |  |  |  |  |  |  |  |  |  |  |  |  | 5.5 mM | 50.0 deltaOD550/min mg protein | 1.3 | 
7 | W574L: AHAS protein with leucine instead of tryptophan at position 574 of SEQ ID NO: 10 (protein, listed as Arabidopsis thaliana) MAAATTTTTTSSSISFSTKPSPSSSKSPLPISRFSLPFSLNPNKSSSSSRRRGIKSSSPSSISAVLNTTTNVTTTPSPTKPTKPETFISRFAPDQPRKGADILVEALERQGVETVFAYPGGASMEIHQALTRSSSIRNVLPRHEQGGVFAAEGYARSSGKPGICIATSGPGATNLVSGLADALLDSVPLVAITGQVPRRMIGTDAFQETPIVEVTRSITKHNYLVMDVEDIPRIIEEAFFLATSGRPGPVLVDVPKDIQQQLAIPNWEQAMRLPGYMSRMPKPPEDSHLEQIVRLISESKKPVLYVGGGCLNSSDELGRFVELTGIPVASTLMGLGSYPCDDELSLHMLGMHGTVYANYAVEHSDLLLAFGVRFDDRVTGKLEAFASRAKIVHIDIDSAEIGKNKTPHVSVCGDVKLALQGMNKVLENRAEELKLDFGVWRNELNVQKQKFPLSFKTFGEAIPPQYAIKVLDELTDGKAIISTGVGQHQMWAAQFYNYKKPRQWLSSGGLGAMGFGLPAAIGASVANPDAIVVDIDGDGSFIMNVQELATIRVENLPVKVLLLNNQHLGMVMQLQDRFYKANRAHTFLGDPAQEDEIFPNMLLFAAACGIPAARVTKKADLREAIQTMLDTPGPYLLDVICPHQEHVLPMIPSGGTFNDVITEGDGRIKY |  |  |  |  |  |  |  |  |  |  |  |  |  | 7 mM | 54.4 deltaOD550/min mg protein | 1.4 | 
